Measurements published in ChEMBL document CHEMBL5653631, “A Potent and Selective ULK1 Inhibitor Suppresses Autophagy and Sensitizes Cancer Cells to Nutrient Stress” (iScience, 2018).
Each block holds one molecule with its values, some of them ahead of it.

Key:
[1] = biological target: Tyrosine-protein kinase Fyn (Homo sapiens) (UniProt P06241); experiment: Inhibition of human recombinant FYN at 500 nM related to control ULK1
[2] = biological target: Calcium/calmodulin-dependent protein kinase kinase 2 (Homo sapiens) (UniProt Q96RR4); experiment: Inhibition of human recombinant CaMKK2 at 500 nM in presence of ATP by radiometric assay relative to control
Sequence of Calcium/calmodulin-dependent protein kinase kinase 2 (Homo sapiens) (Q96RR4 2-588 limits assumed): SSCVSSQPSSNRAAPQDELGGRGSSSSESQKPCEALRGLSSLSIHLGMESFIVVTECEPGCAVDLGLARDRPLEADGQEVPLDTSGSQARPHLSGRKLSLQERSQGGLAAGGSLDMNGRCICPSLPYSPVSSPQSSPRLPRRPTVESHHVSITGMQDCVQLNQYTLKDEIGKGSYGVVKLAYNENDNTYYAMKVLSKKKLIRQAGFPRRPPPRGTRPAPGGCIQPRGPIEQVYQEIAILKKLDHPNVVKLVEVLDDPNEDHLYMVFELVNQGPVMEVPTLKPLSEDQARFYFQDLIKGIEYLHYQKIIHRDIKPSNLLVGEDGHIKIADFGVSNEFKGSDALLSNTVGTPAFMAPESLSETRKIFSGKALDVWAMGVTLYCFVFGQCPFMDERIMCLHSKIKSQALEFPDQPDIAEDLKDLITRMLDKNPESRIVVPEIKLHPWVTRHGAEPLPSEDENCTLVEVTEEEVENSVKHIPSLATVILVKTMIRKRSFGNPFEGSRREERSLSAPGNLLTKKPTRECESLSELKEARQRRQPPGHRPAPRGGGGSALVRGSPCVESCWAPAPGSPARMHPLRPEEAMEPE

[3] = biological target: T1, Myosin-IIIb (Homo sapiens) (UniProt Q8WXR4); experiment: Inhibition of human recombinant MYO3B at 40 nM related to control ULK1
T1 sequence (whole entry): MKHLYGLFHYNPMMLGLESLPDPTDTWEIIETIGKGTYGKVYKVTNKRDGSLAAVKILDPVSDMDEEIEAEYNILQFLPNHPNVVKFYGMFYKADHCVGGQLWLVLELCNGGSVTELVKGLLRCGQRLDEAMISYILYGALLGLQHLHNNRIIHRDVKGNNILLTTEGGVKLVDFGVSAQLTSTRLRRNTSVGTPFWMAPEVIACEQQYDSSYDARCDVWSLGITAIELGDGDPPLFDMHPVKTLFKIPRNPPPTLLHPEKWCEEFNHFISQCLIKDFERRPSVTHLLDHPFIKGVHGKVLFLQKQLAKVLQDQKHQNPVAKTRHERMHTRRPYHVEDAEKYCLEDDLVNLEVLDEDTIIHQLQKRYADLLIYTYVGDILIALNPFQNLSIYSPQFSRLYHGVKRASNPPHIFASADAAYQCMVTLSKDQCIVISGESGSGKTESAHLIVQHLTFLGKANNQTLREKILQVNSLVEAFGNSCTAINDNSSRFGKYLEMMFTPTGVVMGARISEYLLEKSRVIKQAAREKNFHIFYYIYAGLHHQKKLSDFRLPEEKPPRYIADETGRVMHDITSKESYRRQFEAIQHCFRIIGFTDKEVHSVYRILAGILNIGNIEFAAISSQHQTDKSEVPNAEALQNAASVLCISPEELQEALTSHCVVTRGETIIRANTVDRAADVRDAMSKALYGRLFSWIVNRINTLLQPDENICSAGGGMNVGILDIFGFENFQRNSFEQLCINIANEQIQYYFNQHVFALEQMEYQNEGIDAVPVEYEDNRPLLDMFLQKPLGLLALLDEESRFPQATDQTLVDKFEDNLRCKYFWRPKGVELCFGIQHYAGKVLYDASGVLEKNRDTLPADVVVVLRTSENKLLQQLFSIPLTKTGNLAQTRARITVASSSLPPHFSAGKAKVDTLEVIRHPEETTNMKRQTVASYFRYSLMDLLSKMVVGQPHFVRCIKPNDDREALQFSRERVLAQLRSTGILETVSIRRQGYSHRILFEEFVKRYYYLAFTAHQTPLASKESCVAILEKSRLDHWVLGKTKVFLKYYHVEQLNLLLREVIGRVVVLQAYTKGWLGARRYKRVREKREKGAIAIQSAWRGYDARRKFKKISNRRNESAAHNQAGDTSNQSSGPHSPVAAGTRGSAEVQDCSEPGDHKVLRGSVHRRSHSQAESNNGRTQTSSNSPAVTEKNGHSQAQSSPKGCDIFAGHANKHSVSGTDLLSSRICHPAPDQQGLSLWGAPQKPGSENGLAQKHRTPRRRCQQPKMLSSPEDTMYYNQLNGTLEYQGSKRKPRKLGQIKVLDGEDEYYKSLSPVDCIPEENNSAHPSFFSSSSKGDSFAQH

[4] = biological target: Leukocyte tyrosine kinase receptor (Homo sapiens) (UniProt P29376); experiment: Inhibition of human recombinant LTK at 40 nM related to control ULK1
Sequence of Leukocyte tyrosine kinase receptor (Homo sapiens) (P29376 whole entry): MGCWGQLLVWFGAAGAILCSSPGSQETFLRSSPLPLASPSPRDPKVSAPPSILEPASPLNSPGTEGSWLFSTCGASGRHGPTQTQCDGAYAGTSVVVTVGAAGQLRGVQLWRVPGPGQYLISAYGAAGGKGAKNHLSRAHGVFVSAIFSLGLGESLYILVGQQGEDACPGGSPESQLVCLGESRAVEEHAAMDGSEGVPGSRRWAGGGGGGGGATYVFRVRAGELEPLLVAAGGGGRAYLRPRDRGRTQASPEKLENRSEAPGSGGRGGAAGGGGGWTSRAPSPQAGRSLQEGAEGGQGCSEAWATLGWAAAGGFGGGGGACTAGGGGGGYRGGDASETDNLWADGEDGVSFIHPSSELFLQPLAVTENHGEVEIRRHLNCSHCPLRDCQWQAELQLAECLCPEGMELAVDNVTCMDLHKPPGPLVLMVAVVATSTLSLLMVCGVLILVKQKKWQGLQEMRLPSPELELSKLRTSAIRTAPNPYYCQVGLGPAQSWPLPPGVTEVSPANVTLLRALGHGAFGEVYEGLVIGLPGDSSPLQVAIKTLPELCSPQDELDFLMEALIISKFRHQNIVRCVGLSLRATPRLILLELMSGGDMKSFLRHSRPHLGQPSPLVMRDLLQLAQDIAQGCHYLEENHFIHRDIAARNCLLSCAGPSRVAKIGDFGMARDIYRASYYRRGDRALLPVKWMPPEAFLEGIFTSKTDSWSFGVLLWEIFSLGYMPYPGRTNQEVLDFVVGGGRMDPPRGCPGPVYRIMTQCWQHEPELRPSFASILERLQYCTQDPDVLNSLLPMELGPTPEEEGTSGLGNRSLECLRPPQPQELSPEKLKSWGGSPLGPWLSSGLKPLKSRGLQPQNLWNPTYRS

[5] = biological target: Serine/threonine-protein kinase 26 (Homo sapiens) (UniProt Q9P289); experiment: Inhibition of human recombinant MST4 at 40 nM related to control ULK1
Sequence of Serine/threonine-protein kinase 26 (Homo sapiens) (Q9P289 2-416 limits assumed): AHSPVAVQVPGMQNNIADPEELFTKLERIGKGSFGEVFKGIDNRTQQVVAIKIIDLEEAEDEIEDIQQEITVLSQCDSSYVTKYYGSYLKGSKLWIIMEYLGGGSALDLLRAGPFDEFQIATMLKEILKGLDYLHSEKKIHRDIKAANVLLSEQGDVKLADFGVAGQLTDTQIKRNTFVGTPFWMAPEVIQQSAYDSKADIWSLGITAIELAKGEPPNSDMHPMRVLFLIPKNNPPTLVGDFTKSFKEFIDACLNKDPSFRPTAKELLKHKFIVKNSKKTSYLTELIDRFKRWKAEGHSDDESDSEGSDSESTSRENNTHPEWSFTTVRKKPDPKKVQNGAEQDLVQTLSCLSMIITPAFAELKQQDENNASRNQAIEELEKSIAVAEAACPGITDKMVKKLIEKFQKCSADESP

[6] = biological target: Protein kinase C gamma type (Homo sapiens) (UniProt P05129); experiment: Inhibition of human recombinant PKCg at 15 nM in presence of ATP by radiometric assay relative to control
[7] = biological target: T2, Mitogen-activated protein kinase kinase kinase kinase 2 (Homo sapiens) (UniProt Q12851); experiment: Inhibition of human recombinant GCK at 15 nM in presence of ATP by radiometric assay relative to control
T2 sequence (whole entry): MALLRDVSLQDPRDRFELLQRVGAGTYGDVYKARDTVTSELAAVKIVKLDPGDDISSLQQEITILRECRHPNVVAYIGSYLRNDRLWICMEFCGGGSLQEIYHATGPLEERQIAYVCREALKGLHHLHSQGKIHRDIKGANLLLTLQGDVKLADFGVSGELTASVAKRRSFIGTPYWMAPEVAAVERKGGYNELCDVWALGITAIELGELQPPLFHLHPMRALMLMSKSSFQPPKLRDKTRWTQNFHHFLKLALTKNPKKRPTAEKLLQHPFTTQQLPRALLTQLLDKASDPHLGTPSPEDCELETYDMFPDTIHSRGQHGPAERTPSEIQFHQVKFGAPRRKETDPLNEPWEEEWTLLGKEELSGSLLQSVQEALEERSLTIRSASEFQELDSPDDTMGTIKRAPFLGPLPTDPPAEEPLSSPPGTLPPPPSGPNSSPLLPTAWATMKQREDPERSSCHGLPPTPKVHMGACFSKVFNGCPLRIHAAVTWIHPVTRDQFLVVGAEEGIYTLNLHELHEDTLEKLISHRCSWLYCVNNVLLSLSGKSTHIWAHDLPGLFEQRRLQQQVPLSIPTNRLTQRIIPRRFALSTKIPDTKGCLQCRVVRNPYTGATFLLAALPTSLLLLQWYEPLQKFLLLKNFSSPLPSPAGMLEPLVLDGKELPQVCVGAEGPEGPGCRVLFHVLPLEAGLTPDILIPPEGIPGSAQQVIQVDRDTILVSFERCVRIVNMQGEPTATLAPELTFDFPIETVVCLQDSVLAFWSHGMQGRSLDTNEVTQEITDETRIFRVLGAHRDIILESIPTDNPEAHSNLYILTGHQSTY

[8] = biological target: Dual specificity tyrosine-phosphorylation-regulated kinase 1A (Homo sapiens) (UniProt Q13627); experiment: Inhibition of human recombinant DYRK1A at 15 nM in presence of ATP by radiometric assay relative to control

Sequence of Tyrosine-protein kinase Fyn (Homo sapiens) (P06241 2-537 limits assumed): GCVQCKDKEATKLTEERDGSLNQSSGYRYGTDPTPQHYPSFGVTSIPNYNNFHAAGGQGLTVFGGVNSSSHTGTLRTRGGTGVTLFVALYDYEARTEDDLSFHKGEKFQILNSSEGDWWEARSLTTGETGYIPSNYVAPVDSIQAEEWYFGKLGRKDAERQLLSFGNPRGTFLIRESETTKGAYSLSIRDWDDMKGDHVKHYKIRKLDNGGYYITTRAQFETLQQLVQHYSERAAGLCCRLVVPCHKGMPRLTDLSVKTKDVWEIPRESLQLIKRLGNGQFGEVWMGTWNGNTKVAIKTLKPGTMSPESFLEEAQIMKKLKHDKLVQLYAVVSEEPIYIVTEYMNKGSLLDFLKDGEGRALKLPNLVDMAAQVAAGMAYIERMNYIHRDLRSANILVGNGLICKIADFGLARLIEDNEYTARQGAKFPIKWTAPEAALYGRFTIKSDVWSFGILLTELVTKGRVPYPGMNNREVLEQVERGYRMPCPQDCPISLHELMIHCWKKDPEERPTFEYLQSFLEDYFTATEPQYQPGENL

- fold change (FC) [1]: 0.26
- inhibition [2]: 4%
Structure (SMILES): CNC(=O)c1ccccc1Oc1nc(Nc2cc(OC)c(OC)c(OC)c2)ncc1Br

- fold change (FC) [3]: 0
- fold change (FC) [4]: 0
- fold change (FC) [5]: 0
Structure (SMILES): O=C(N[C@@H](C1CC1)C(F)(F)F)c1cc(-c2cnn3cc(-c4ccc(F)cc4)cnc23)cs1

- inhibition [6]: 0%
- inhibition [7]: 34%
- inhibition [8]: 73%
Structure (SMILES): CC(C)[C@H](NC(=O)c1cc(-c2cnn3cc(-c4ccc(OCCN5CCCCC5)cc4)cnc23)cs1)C(F)(F)F
